From patent US7291601B1, “Arginine-rich anti-vascular endothelial growth factor peptides that inhibit growth and metastasis of human tumor cells by blocking angiogenesis” (Korea Greencross Corp., priority 1999, dated 2007)

Legend:
[1] = tested on: egg CAM (chorioallantoic membranes); assay: Egg CAM assay, angiogenesis induced by VEGF; assay type: in vivo; conditions: VEGF 10 ng/egg alone or with 1 μg sample; for Angiogenic activity(%): (standard deviation)
Experimental: Fertilized eggs (Pulmuwon, Korea) were incubated at 37° C. under a humidity of 90%. After three days of culturing, the eggs were deprived of about 2 ml of albumin. After four days, eggs were partially deprived of the sheath to make a window with a size of 2×2 cm.
After VEGF (10 ng/egg) was mixed with various amounts of peptides or other samples, 3 μl of each mixture was dropped onto ¼ fraction pieces of thermanox coverslips (Nunc) and dried. The pieces were placed on CAM of 9-day embryonic eggs.
Two days later, the samples were independently observed under anatomical microscopes by two different persons to determine whether new blood vessels are induced by the dropped samples or not. In this regard, the experiment was repeated at least three times using 10 or more eggs per sample and the results are given in Table 5, below.

[2] = tested on: human fibro-sarcoma cells; assay: Viability of human fibro-sarcoma cells (tetrazolium dye); assay type: cell-based; conditions: 3 days incubation, various concentrations
Experimental: The following experiment was carried out to determine whether peptides antagonistic to VEGF have direct influence on the growth of human fibro-sarcoma cells. After being cultured for one day in a 96-well plate (Nunc), the cancer cells were added with DMEM containing various concentrations of the screened peptides and incubated. To the cells remaining alive after 3 days of incubation, 20 μl of tetrazolium dye (Cell Titer 96 Non-Radioactive Proliferation assay kit, Promega) was added, followed by incubation at 37° C. for 4 hours. The formazan produced by the viable cells was dissolved in 0.2 ml of dimethyl sulfoxide (DMSO) quantified by the absorbance at 570 nm. The absorbance attributed to formazan is proportional to living cells.

[3] = Acute toxicity test on rat upon non-oral administration; assay type: in vivo; conditions: 1 mg/kg, intramuscular injection; for LD50: rat, in vivo, im, SD rats, read-out: lethal dose (LD50)
Experimental: Using specific pathogen-free (SPF) SD rats which were six weeks old, the peptides of Sequences 1, 2, and 3 were tested for acute toxicity. Suspensions of the peptides in 1 ml of PBS were administered at a dose of 1 mg/kg to the rats, which were grouped in twos, by intramuscular injection. […] An autopsy was made of the rats with the naked eye to observe whether their abdominal and thoracic organs were damaged. Neither sudden death nor noticeable clinical symptoms were detected in any of the animals administered with the peptides of interest.

[4] = tested on: HM7 (human colon carcinoma cell line); assay: Growth of HM7 cancer cells in vitro (tetrazolium dye); assay type: cell-based; conditions: 5×10^3 cells/well
Excerpt: In order to conduct an experiment concerning the metastasis of cancer cells to the liver, cancerous cells were transplanted into the spleen. In this regard, after being anesthetized with diethyl ether, 4-week-old male mice (athymic nude mice, BALB/c/nu/nu, Charles River, Japan) underwent flank incision. […] Four weeks after the injection, the liver was excised from each mouse and measured for weight and the size and number of metastatic nodules formed. Each test group was composed of 6-7 mice. In a student's t-test, a p value less than 0.05 was regarded as being statistically significant. In the test using tetrazolium dye (cell titer 96 Non-radioactive Proliferation Assay Kit, Promega), each peptide was evaluated to have no influence on the growth of the cancer cells (5×10^3 cells/well), so that the possibility that the toxicity of the peptide themselves might inhibit the growth and metastasis of cancer cells could be excluded.

VEGF = target: T1, VEGF (Homo sapiens, UniProt P15692); assay: Inhibition of 125I-labeled VEGF binding to its receptors on HUVEC; conditions: for IC50: HUVEC, peptides at 1, 4, 10 and 20 μM/sequence (FIG. 5)
T1 sequence (P15692 27-191 isoform P15692-4): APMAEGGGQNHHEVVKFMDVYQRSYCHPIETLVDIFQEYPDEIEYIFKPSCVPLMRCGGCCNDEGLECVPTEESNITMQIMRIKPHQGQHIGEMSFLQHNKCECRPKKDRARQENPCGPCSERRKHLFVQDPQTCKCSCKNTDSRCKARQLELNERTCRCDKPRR
Experimental: Then, the cells were transferred to a medium (Medium 199/25 mM HEPES, pH 7.4/0.1% bovine serum albumin) containing 0.2 ng of ^125I-labeled VEGF and various concentrations of peptides or combinatorial peptide libraries and reacted at 4° C. for 3 hours. The cells were washed twice with the same medium and once with PBS containing 0.1% albumin to remove the labeled VEGF which still remained uncombined. Thereafter, to quantify the labeled VEGF which bound to receptors present on the surface of the vascular endothelial cells, the cells were treated with 0.5 ml of a lysis solution (20 mM Tris-HCl, pH 7.4/1% TritonX-100) for 20 min, followed by measuring the resulting lysate for radioactivity with the aid of a γ-counter.
The sequence of each peptide was indirectly decided through the analysis of amino acid compositions and its concentration was determined, after which 12 peptides were assayed for antagonism toward VEGF binding at various concentrations (1, 4, 10, and 20 μM/sequence).

[5] = tested on: HT1080 (human fibrosarcoma); assay: Egg CAM assay, angiogenesis induced by VEGF-secreting cancer cells; assay type: in vivo; conditions: for effect on angiogenesis induced by VEGF secreted from human cancer cells: FIG. 12; for Angiogenic activity eggs/total eggs / Angiogenic activity(%): egg CAM, 10^5 HT1080 cells/egg with 0.1 μg peptide; for Angiogenic activity(%): (standard deviation)
Experimental: An experiment using egg CAM was carried out to confirm the inhibitory activity of the screened peptides against the angiogenesis induced by cancer cells, which secrete VEGF. Fertilized eggs were deprived of albumin and windows were formed on the eggs as in above. 10^5 cells of HT1080 (human fibrosarcoma) were mixed with 7.5 μg of Type I collagen (rat tail, Beckton Dickinson, USA) within a volume of 5 μl and dropped onto ¼ fraction pieces of Thermanox coverslips to give collagen sponges. After being covered with the collagen sponges, 10-day embryonic egg CAM was incubated at 37° C. for 3 days. Blood vessels induced by the cancer cells were observed and photographed as in above (see Table 6 and FIG. 12).

[6] = tested on: VEGF-induced DNA synthesis of HUVEC; assay: VEGF-induced DNA synthesis of HUVEC ([methyl-3H] thymidine); assay type: cell-based, human; conditions: FIG. 10a
Experimental: (§1) In a gelatin-coated 48-well plate (Nunc) HUVEC were cultured at a density of 10^4 cells/well at 37° C. for one day, followed by washing the cells three times with serum-free medium 199. After being added with culture media containing VEGF (10 ng/ml, R&D systems) and various concentrations of the screened peptides, the cells were cultured at 37° C. After 24 hours of culturing, the cells were added with [methyl-^3H] thymidine (0.5 μCi/well) and cultured for an additional one day. Before quantification of the radioactivity used for the DNA synthesis with the aid of a liquid scintillation counter, the cells were washed with PBS containing 0.1% albumin, treated with 0.4 N NaOH at room temperature for 20 min for cell lysis, and neutralized with 2 N HCl. In order to determine the toxicity of the peptides, HUVEC were examined as in above using excess peptide (100 μM) in the absence of VEGF.

HUVEC = assay: Toxicity of peptides to HUVEC in the absence of VEGF (thymidine incorporation); assay type: cell-based, human; conditions: 100 μM peptide
Experimental: as §1
With reference to FIG. 10b, the radioactivity of the thymidine inserted into the genome of HUVEC is measured in the absence of no peptides and in the presence of 100 μM of each of the three peptides.

Row | Compound | Angiogenic activity eggs/total eggs [1] | Angiogenic activity(%) [1] | direct influence on growth / viability of human fibro-sarcoma cells ([2]; listed as SEQ ID NO: 3) | direct influence on growth / viability of human fibro-sarcoma cells ([2]; listed as Sequence 3) | toxic changes to the rats [3] | LD50 [3] | influence on growth of the cancer cells / cytotoxicity to human colon carcinoma cells [4] | IC50 (VEGF) | effect on angiogenesis induced by VEGF secreted from human cancer cells [5] | Angiogenic activity eggs/total eggs [5] | Angiogenic activity(%) [5] | inhibition of VEGF-induced growth of vascular endothelial cells [6] | direct influence on growth of HUVEC / cytotoxicity to endothelial cells (HUVEC) | direct influence on growth / viability of human fibro-sarcoma cells ([2]; listed as SEQ ID NO: 2) | direct influence on growth / viability of human fibro-sarcoma cells ([2]; listed as Sequence 2) | direct influence on growth / viability of human fibro-sarcoma cells ([2]; listed as SEQ ID NO: 1) | direct influence on growth / viability of human fibro-sarcoma cells ([2]; listed as Sequence 1) | inhibition of binding of labeled VEGF165 to its receptors (VEGF; recombinant labeled VEGF165, FIG. 9)
1 | N=C(N)NCCC[C@H](NC(=O)[C@H](CCCNC(=N)N)NC(=O)[C@H](CCCNC(=N)N)NC(=O)[C@H](CCCNC(=N)N)NC(=O)[C@H](CCCNC(=N)N)NC(=O)[C@@H](N)CCCNC(=N)N)C(N)=O [compound 11, NH2-Arg-Arg-Arg-Arg-Arg-Arg-CONH2] | 4/26 | 15.6(5.1) % | no direct influence on human fibro sarcoma cells | damage neither | no toxic changes | ≥ 1 mg/kg | damage neither | 3.8 µM | inhibitory effect | 10/24 | 41.0(7.1) % | inhibit the VEGF-induced growth of vascular endothelial cells in a dose-dependent pattern | damage neither |  |  |  |  | 
2 | H-RKKRKR-NH2 [compound 1, NH2-Arg-Lys-Lys-Arg-Lys-Arg-CONH2] | 4/26 | 15.6(4.5) % |  |  | no toxic changes | ≥ 1 mg/kg | damage neither | 3.4 µM | inhibitory effect | 10/23 | 43.0(9.9) % | inhibit the VEGF-induced growth of vascular endothelial cells in a dose-dependent pattern | damage neither | no direct influence on human fibro sarcoma cells | damage neither |  |  | 
3 | H-RRKRRR-NH2 [compound 8, NH2-Arg-Arg-Lys-Arg-Arg-Arg-CONH2] | 4/26 | 15.6(5.1) % |  |  | no toxic changes | ≥ 1 mg/kg | damage neither | 2 µM | inhibitory effect | 8/22 | 36.0(8.5) % | inhibit the VEGF-induced growth of vascular endothelial cells in a dose-dependent pattern | damage neither |  |  | no direct influence on human fibro sarcoma cells | damage neither | inhibited
